Measured values published in PubChem BioAssay (NCI).
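GI50 = concentration required for 50% inhibition of growth. TGI is the concentration that stops growth completely.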

Experiments:
Assay in all cases: growth of human tumour cells (NCI), 384-well format
[1] = tested on: MDA-MB-435 melanoma
[2] = tested on: MCF7 breast
[3] = tested on: TK-10 renal
[4] = tested on: UO-31 renal
[5] = tested on: SF-539 CNS
[6] = tested on: 786-0 renal
[7] = tested on: SK-MEL-28 melanoma
[8] = tested on: NCI/ADR-RES ovarian
[9] = tested on: CCRF-CEM leukemia
[10] = tested on: A498 renal
[11] = tested on: A549 NSCLC
[12] = tested on: HCT-15 colon
[13] = tested on: RPMI-8226 leukemia
[14] = tested on: K-562 leukemia
[15] = tested on: ACHN renal
[16] = tested on: NCI-H460 NSCLC
[17] = tested on: SF-268 CNS
[18] = tested on: OVCAR-4 ovarian
[19] = tested on: UACC-257 melanoma
[20] = tested on: KM12 colon
[21] = tested on: SNB-75 CNS
[22] = tested on: MALME-3M melanoma
[23] = tested on: IGROV1 ovarian
[24] = tested on: SR leukemia
[25] = tested on: NCI-H226 lung
[26] = tested on: SN12C renal
[27] = tested on: OVCAR-8 ovarian
[28] = tested on: OVCAR-5 ovarian
[29] = tested on: MDA-MB-468 breast
[30] = tested on: T-47D breast
[31] = tested on: HT29 colon
[32] = tested on: DU-145 prostate
[33] = tested on: CAKI-1 renal
[34] = tested on: EKVX NSCLC
[35] = tested on: MDA-MB-231 breast
[36] = tested on: LOX IMVI melanoma
[37] = tested on: SK-MEL-2 melanoma
[38] = tested on: HCC-2998 colon
[39] = tested on: NCI-H522 lung
[40] = tested on: COLO 205 colon
[41] = tested on: HOP-62 NSCLC
[42] = tested on: SK-OV-3 ovarian
[43] = tested on: U251 glioblastoma
[44] = tested on: HL-60(TB) leukemia
[45] = tested on: HOP-92 NSCLC
[46] = tested on: OVCAR-3 ovarian
[47] = tested on: SK-MEL-5 melanoma

Cc1ccc2c(Nc3cccc(Cl)c3F)ncc(NC(=O)c3csc4c(N)ncnc34)c2c1
GI50 [1]: 0.0481 µM
TGI [1]: 55 µM
GI50 [2]: 7.47 µM
TGI [2]: > 100 µM
GI50 [3]: 8.61 µM
TGI [3]: 75.8 µM
GI50 [4]: 0.258 µM
TGI [4]: > 100 µM
GI50 [5]: 29.1 µM
TGI [5]: > 100 µM
GI50 [6]: 22.2 µM
TGI [6]: > 100 µM
GI50 [7]: 0.0179 µM
TGI [7]: 0.0923 µM
GI50 [8]: 19.7 µM
TGI [8]: > 100 µM
GI50 [9]: 15 µM
TGI [9]: 34.5 µM
GI50 [10]: 3.07 µM
TGI [10]: 43 µM
GI50 [11]: 17.5 µM
TGI [11]: > 100 µM
GI50 [12]: 26.3 µM
TGI [12]: > 100 µM
GI50 [13]: 1.6 µM
TGI [13]: 18.5 µM
GI50 [14]: 0.592 µM
TGI [14]: > 100 µM
GI50 [15]: 12.7 µM
TGI [15]: > 100 µM
GI50 [16]: 13 µM
TGI [16]: > 100 µM
GI50 [17]: 21.9 µM
TGI [17]: 73.7 µM
GI50 [18]: 44.6 µM
TGI [18]: > 100 µM
GI50 [19]: 0.0668 µM
TGI [19]: 0.569 µM
GI50 [20]: 0.54 µM
TGI [20]: 99.4 µM
GI50 [21]: 33.6 µM
TGI [21]: > 100 µM
GI50 [22]: 0.0124 µM
TGI [22]: 0.0436 µM
GI50 [23]: 1.6 µM
TGI [23]: 97.9 µM
GI50 [24]: 15.1 µM
TGI [24]: 82.8 µM
GI50 [25]: 0.978 µM
TGI [25]: > 100 µM
GI50 [26]: 8.16 µM
TGI [26]: > 100 µM
GI50 [27]: 13.2 µM
TGI [27]: 43.1 µM
GI50 [28]: 0.178 µM
TGI [28]: > 100 µM
GI50 [29]: 18.3 µM
TGI [29]: 52.4 µM
GI50 [30]: 19.5 µM
TGI [30]: > 100 µM
GI50 [31]: 0.127 µM
TGI [31]: > 100 µM
GI50 [32]: 22 µM
TGI [32]: > 100 µM
GI50 [33]: 0.577 µM
TGI [33]: > 100 µM
GI50 [34]: 10.8 µM
TGI [34]: > 100 µM
GI50 [35]: 0.0195 µM
TGI [35]: 16.3 µM
GI50 [36]: 0.0418 µM
TGI [36]: 1.18 µM
GI50 [37]: 0.0346 µM
TGI [37]: 0.148 µM
GI50 [38]: 0.115 µM
TGI [38]: 0.537 µM
GI50 [39]: 13.1 µM
TGI [39]: 59 µM
GI50 [40]: 0.0242 µM
TGI [40]: 19.3 µM
GI50 [41]: 11.5 µM
TGI [41]: > 100 µM
GI50 [42]: 27 µM
TGI [42]: > 100 µM
GI50 [43]: 22.3 µM
TGI [43]: > 100 µM
GI50 [44]: 0.0159 µM
TGI [44]: 12.8 µM
GI50 [45]: 0.542 µM
TGI [45]: 7.97 µM
GI50 [46]: 22.2 µM
TGI [46]: 84.7 µM
GI50 [47]: 0.0518 µM
TGI [47]: 23.1 µM
